Laboratory results taken from patent US10168342B2, “Lipid probes and uses thereof” (THE SCRIPPS RESEARCH INSTITUTE, priority 2015, dated 2019).
Like-named read-outs stand apart in the source and are kept apart here.

What was measured:
[1] = target: T1, AEA-DA lipid probe targets in Neuro2a cells (Mus musculus, UniProt P57776)
T1 sequence (P57776 1-281): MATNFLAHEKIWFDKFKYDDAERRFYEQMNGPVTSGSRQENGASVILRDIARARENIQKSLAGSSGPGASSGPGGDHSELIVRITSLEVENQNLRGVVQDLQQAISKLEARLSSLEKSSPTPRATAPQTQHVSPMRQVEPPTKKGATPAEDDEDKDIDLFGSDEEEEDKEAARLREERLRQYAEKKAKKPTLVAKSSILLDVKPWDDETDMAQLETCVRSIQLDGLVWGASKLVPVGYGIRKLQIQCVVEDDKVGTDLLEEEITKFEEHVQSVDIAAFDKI

[2] = target: AEA-DA lipid probe targets in Neuro2a cells (Mus musculus, UniProt P47867)
[3] = target: T2, AEA-DA lipid probe targets in Neuro2a cells (Mus musculus, UniProt Q61753)
T2 sequence (Q61753 1-533): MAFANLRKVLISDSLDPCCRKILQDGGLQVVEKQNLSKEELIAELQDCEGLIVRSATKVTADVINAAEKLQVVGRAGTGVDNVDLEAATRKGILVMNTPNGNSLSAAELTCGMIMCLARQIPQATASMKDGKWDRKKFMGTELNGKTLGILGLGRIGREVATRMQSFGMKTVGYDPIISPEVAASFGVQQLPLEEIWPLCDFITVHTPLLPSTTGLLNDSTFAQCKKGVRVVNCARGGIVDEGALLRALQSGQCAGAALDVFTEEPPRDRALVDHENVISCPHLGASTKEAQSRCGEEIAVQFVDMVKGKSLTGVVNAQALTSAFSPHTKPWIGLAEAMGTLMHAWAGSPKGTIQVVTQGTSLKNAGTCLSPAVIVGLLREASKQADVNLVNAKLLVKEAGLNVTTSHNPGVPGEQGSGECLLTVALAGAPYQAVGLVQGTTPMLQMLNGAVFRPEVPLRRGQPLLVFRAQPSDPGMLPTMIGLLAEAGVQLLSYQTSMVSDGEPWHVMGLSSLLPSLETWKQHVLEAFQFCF

[4] = target: AEA-DA lipid probe targets in Neuro2a cells (Mus musculus, UniProt P52019); settings: for SILAC ratio, SQLE (Q14534): Neuro2a cells, AEA-DA probe
[5] = target: T3, AEA-DA lipid probe targets in Neuro2a cells (Mus musculus, UniProt Q80WJ7)
T3 sequence (Q80WJ7 1-579): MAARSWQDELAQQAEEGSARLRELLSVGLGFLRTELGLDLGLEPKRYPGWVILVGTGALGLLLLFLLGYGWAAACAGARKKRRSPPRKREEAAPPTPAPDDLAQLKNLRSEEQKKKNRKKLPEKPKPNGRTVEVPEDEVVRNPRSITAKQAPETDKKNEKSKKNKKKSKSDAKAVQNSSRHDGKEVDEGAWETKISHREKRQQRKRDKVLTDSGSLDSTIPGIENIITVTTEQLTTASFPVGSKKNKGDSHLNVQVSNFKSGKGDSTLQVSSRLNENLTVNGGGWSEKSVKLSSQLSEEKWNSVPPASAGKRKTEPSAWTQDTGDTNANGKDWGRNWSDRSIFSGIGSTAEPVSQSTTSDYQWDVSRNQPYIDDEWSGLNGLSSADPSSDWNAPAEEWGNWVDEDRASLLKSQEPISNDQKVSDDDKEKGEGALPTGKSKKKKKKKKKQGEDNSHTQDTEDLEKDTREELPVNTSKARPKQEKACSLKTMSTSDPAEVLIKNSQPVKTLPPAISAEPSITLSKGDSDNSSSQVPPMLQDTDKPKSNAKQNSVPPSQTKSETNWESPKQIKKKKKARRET

[6] = target: T4, AEA-DA lipid probe targets in Neuro2a cells (Mus musculus, UniProt Q5SW19)
T4 sequence (Q5SW19 1-1315): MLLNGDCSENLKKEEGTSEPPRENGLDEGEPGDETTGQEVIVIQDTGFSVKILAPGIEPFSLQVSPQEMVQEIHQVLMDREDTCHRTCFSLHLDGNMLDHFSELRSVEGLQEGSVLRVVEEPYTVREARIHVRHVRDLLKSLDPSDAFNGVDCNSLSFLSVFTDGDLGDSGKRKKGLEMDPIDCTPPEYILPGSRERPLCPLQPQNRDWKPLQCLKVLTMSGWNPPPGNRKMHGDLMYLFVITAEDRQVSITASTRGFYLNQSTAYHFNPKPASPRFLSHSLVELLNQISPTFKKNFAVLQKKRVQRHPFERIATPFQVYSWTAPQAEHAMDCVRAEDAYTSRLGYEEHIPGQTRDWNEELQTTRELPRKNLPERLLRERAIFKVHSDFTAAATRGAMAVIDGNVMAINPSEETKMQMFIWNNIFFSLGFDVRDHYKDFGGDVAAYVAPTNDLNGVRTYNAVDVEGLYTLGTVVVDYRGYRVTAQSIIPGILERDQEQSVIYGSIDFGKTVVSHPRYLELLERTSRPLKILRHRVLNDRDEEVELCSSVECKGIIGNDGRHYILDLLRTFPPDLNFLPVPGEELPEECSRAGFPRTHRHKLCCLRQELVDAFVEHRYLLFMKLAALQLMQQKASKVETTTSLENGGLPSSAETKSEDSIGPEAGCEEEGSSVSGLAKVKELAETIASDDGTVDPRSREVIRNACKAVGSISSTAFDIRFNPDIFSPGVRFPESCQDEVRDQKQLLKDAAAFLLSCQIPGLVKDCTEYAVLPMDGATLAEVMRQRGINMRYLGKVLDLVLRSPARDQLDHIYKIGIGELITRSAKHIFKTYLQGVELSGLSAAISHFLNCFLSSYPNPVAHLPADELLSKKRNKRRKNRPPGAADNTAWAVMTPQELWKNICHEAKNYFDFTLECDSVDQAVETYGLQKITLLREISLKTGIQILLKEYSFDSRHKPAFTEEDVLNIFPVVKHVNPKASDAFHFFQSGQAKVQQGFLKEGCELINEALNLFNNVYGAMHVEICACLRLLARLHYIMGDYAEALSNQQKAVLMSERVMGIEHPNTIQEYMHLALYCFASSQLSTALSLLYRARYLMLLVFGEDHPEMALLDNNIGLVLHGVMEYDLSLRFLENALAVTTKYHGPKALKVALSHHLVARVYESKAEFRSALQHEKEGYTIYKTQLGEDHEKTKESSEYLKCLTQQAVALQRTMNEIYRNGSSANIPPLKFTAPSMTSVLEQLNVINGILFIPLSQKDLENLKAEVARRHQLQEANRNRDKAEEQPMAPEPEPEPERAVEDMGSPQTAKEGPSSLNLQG

Sequence of AEA-DA lipid probe targets in Neuro2a cells (Mus musculus, UniProt P52019) (P52019 whole entry): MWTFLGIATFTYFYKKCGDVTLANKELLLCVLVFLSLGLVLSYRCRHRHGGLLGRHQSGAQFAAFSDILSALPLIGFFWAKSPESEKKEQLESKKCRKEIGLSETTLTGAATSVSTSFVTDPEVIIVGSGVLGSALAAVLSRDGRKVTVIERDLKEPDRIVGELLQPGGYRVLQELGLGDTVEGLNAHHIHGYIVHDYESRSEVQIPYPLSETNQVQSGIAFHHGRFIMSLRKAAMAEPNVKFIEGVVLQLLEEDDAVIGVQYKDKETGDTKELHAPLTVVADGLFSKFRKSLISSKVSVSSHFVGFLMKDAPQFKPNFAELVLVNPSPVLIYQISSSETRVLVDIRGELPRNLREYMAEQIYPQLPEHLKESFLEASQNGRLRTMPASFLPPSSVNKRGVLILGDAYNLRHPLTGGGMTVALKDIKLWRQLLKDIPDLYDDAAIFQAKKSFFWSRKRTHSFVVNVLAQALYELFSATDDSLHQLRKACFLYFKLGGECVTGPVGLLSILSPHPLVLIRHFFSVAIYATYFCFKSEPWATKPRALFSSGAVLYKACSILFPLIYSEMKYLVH
Sequence of AEA-DA lipid probe targets in Neuro2a cells (Mus musculus, UniProt P47867) (P47867 23-471): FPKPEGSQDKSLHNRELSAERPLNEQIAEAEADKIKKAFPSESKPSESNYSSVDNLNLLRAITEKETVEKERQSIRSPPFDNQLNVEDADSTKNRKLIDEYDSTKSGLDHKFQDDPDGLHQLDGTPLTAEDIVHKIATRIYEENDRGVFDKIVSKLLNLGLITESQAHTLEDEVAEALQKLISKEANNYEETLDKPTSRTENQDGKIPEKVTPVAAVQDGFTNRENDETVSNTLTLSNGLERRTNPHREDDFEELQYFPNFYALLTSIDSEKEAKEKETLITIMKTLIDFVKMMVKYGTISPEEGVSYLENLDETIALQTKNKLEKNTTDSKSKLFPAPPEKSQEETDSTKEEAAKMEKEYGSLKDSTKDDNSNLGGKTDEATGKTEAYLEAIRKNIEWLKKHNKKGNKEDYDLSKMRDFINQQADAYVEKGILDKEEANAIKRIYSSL

SMILES | SILAC ratio Eef1d ([1]; competitor 25 μM) | SILAC ratio, Scg3 ([2]; competitor 25 μM) | SILAC ratio Kiaa0664 ([6]; competitor 25 μM) | SILAC ratio Phgdh ([3]; competitor 25 μM) | SILAC ratio, SQLE (Q14534) ([4]; competitor 25 μM) | SILAC ratio Sqle ([4]; competitor 25 μM) | SILAC ratio Mtdh ([5]; competitor 25 μM) | further results
CCCCC/C=C\C/C=C\C/C=C\C/C=C\CCCC(=O)NCCO [AEA, anandamide, reference compound] | – | – | – | – | – | – | – | SILAC ratio Eef1d ([1]; competitor 200 μM): 1.1; SILAC ratio, Scg3 ([2]; competitor 200 μM): 1.2; SILAC ratio Phgdh ([3]; competitor 200 μM): 1.2; SILAC ratio, SQLE (Q14534) ([4]; competitor 200 μM): 1.9; SILAC ratio Sqle ([4]; competitor 200 μM): 1.9; SILAC ratio Mtdh ([5]; competitor 200 μM): 1.7
O=C(/C=C/c1cccnc1)NCCCCC1CCN(C(=O)c2ccccc2)CC1 [FK-866, reference compound] | 1.2 | 1.0 | 1.2 | 1.3 | 1.1 | 1.1 | 1.2 | –
CN1CCN(C(=O)c2c(-c3ccccc3)c3cc([N+](=O)[O-])ccc3n2C)CC1 [KML110, (1-Methyl-5-nitro-3-phenyl-1H-indol-2-yl)(4-methylpiperazin-1-yl)methanone] | 1.4 | 1.0 | 2.1 | 1.5 | – | 1.3 | 1.5 | –
CN1CCN(C(=O)c2[nH]c3ccc([N+](=O)[O-])cc3c2-c2ccccc2)CC1 [MJN228, (4-Methylpiperazin-1-yl)(5-nitro-3-phenyl-1H-indol-2-yl)methanone] | 1.3 | 1.3 | 2.2 | 1.1 | 1.5 | 1.5 | 1.5 | SILAC ratio Eef1d ([1]; competitor 100 μM): 1.4; SILAC ratio, Scg3 ([2]; competitor 10 μM): 1.0; SILAC ratio, Scg3 ([2]; competitor 50 μM): 1.0; SILAC ratio, Scg3 ([2]; competitor 100 μM): 0.8; SILAC ratio Kiaa0664 ([6]; competitor 10 μM): 1.5; SILAC ratio Kiaa0664 ([6]; competitor 50 μM): 1.0; SILAC ratio Kiaa0664 ([6]; competitor 100 μM): 1.9; SILAC ratio Phgdh ([3]; competitor 10 μM): 1.2; SILAC ratio Phgdh ([3]; competitor 50 μM): 0.9; SILAC ratio Phgdh ([3]; competitor 100 μM): 1.1; SILAC ratio Sqle ([4]; competitor 10 μM): 1.3; SILAC ratio Sqle ([4]; competitor 100 μM): 2.1; SILAC ratio Mtdh ([5]; competitor 10 μM): 1.3; SILAC ratio Mtdh ([5]; competitor 50 μM): 1.6; SILAC ratio Mtdh ([5]; competitor 100 μM): 1.9
C=CCN(C)CCCCCCOc1ccc(C(=O)c2ccc(Br)cc2)c(F)c1 [Ro 48-8071, reference compound] | 0.9 | 0.9 | 1.0 | 1.0 | 1.0 | 1.0 | 1.2 | –
